In US11524045B2, “Peptides for dry eye disease” (ALLYSTA PHARMACEUTICALS, INC., priority 2017, dated 2022):
Entries after “also recorded” stand apart in the source; their conditions may differ.

Columns and labels:
Assay type in all cases: in vivo, C57BL/6 mice
[1] = tested on: desiccating stress-induced dry eye (experimental dry eye; EDE); experiment: Tear film break-up time (TBUT) in mouse model of desiccating stress-induced dry eye; settings: EDE mice, 5% Lifitegrast or 0.1% SEQ ID NO:1, 2 μL eye drops three times a day, five and 10-day endpoints, vs untreated dry eye (vehicle)
Experimental: (§1) The following Methods were used to evaluate the efficacy, anti-inflammatory activity and the therapeutic potential of a peptide inhibitor of trans-endothelial migration peptide compared with 5% Lifitegrast in a mouse model of desiccating stress-induced dry eye (experimental dry eye; EDE).
(§2) Desiccating stress was induced in six to eight-week-old female C57BL/6 mice by subcutaneous injection of 0.5 mg/0.2 mL scopolamine hydrobromide (Sigma-Aldrich, St. Louis, Mo.) three times a day ([…] given at 4.5 hr. intervals) with exposure to an air draft and 30% ambient humidity), which was maintained throughout the dosing period. During these experiments, the animals' behavior, food, and water intake were not restricted. Treatment was terminated and testing was conducted at endpoints of either five or ten days.
Each treatment group comprised 5 animals (n=10 eyes/group) randomly assigned. The groups were treated topically as follows: • 1. Untreated (Normal) control mice that were not exposed to desiccating stress or treated topically • 2. EDE mice treated with balanced salt solution (BSS, vehicle, Alcon, Fort Worth, Tex.) • 3. EDE mice treated with 5% (wt) Lifitegrast (Shire Plc) • 4. […]
All treatment groups received 2 μL eye drops three times a day. The mice in each treatment group: EDE treated with BSS, EDE treated with 5% Lifitegrast, and EDE treated with 0.1% SEQ ID NO:1 were dosed/treated three times/day with 2 uL eye drops of each treatment, respectively (except Normal group). […]
After three blinks, tear film break-up time (BUT) was recorded in seconds using slit lamp biomicroscopy (BQ-900; Haag-Streit, Bern, Switzerland) under cobalt blue light. […]
Tear Film Break-up: This experiment evaluated the anti-inflammatory activity and efficacy of the peptide inhibitor of trans-endothelial migration peptide in ameliorating Desiccation-induced Dry Eye (DED). Eyes were evaluated for time for dry spots to appear on the corneal surface of the eye after blinking. […] Subjects with normal tear quantity but an unstable tear film can explain dry eye symptoms. […]

[2] = tested on: desiccating stress-induced dry eye (experimental dry eye; EDE); experiment: Corneal fluorescein staining in mouse model of desiccating stress-induced dry eye; settings: EDE mice; 5% Lifitegrast or 0.1% SEQ ID NO:1, 2 μL eye drops three times a day; five and ten days; vs untreated dry eyes
Experimental: as §1, §2
Each treatment group comprised 5 animals (n=10 eyes/group) randomly assigned. […]
Ninety seconds after the fluorescein drops were added to measure TBUT, punctate staining on the corneal surface was evaluated in a masked fashion. Each cornea was divided into four quadrants that were scored individually. Corneal fluorescein staining severity score was calculated using a 4-point scale: 0=absent; 1=slightly punctate staining <30 spots; 2=punctate staining >30 spots, but not diffuse; 3=severe diffuse staining but no positive plaque; and 4=positive fluorescein plaque. […]

[3] = tested on: CD4+ and CCR5+ T cells from the conjunctiva; experiment: Flow cytometry of activated T cells from the conjunctiva in murine dry eye model; settings: EDE mice; 0.1% SEQ ID NO:1 eye drops three times a day; after 10 days; normal range 15% to 22%, normal control 18.86%
Experimental: as §1, §2
Each treatment group comprised 5 animals (n=10 eyes/group) randomly assigned. The groups were treated topically as follows: • 1. […]
Flow cytometry was performed for quantitation of CD4+ and CCR5+ T cells from the conjunctiva as previously described (Yoon K C, Heo H, Kang I S, et al. Cornea (2008) 27: 454-460). […]
The number of CD4+ and CCR5+ T cells was counted by a FACSCalibur cytometer with CellQuest software (BD Biosciences).
Eye conjunctiva was evaluated for the number of Activated T cells present in the conjunctiva for each group in the murine Dry Eye study. […]

Compound	tear film break-up time [1]	tear film break-up time ([1]; listed as peptide inhibitor of trans-endothelial migration peptide)	corneal fluorescein staining grade (corneal disruptions) [2]	percentage of Activated T Cells within the conjunctiva [3] [%]
H-Ser-Val-Thr-Glu-Gln-Gly-Ala-Glu-Leu-Ser-Asn-Glu-Glu-Arg-NH2 (H-SVTEQGAELSNEER-NH2) [SEQ ID NO:1]	noticeably improved tear film times at both endpoints	noticeably improved tear film times at both intervals	improved corneal disruptions	21.67
CS(=O)(=O)c1cccc(C[C@H](NC(=O)c2c(Cl)cc3c(c2Cl)CCN(C(=O)c2ccc4ccoc4c2)C3)C(=O)O)c1 [Lifitegrast, reference compound]	can ameliorate induced dry eye; also recorded: can ameliorate DED	–	improved corneal disruptions	–
